Values of other authors in patent US11273125B2, “Preparation of desiccated liposomes for use in compressible delivery systems” (SMARTEK INTERNATIONAL LLC, priority 2017, dated 2022).

Conditions: poor bioavailability of the unformulated compound; route and species not given

bioavailability: approximately 5%
Compound: COc1ccc2c(=O)cc(-c3ccccc3)oc2c1 [7-methoxyflavone]
